Experiments:
Format in all cases: physicochemical
[1] = Confirmation of dissolution control mechanism-1 (dissolution test, paddle 100 rpm); settings: water-soluble polymer coated particle 3 of Reference Example 2, FIG. 14
Experimental: The water-soluble polymer coated particle 3 obtained in Reference Example 2 and containing 60 mg of compound A was subjected to a dissolution test using paddle at 100 rpm and in the same manner as in Experimental Example 1. The dissolution media was the Japanese Pharmacopoeia dissolution test 2nd fluid, the Japanese Pharmacopoeia dissolution test 2nd fluid added with 10% (W/W) sodium carbonate, the Japanese Pharmacopoeia dissolution test 2nd fluid added with 13% (W/W) succinic acid, or the Japanese Pharmacopoeia dissolution test 2nd fluid added with 0.6% (W/W) fumaric acid.

[2] = Influence of concentration of fumaric acid or monosodium fumarate on dissolution amount of compound A (common ion effect); settings: JP2 with various concentrations of fumaric acid or monosodium fumarate, room temperature, 1 hr; FIG. 11
Experimental: Solutions containing various concentrations of fumaric acid or monosodium fumarate dissolved in the Japanese Pharmacopoeia dissolution test 2nd fluid were prepared. Then, 50 mg of compound A was measured and charged in a 10 mL plastic tube and each of the above-mentioned solution (5 mL) was added and the mixture was vigorously shaken at room temperature for 1 hr. The suspension after shaking was filtered, diluted 100-fold and subjected to HPLC measurement. The dissolution amount of compound A was measured.

[3] = Dissolution profile of compound A, fumaric acid, succinic acid (Rotating Basket 100 rpm); settings: water-insoluble polymer coated particle of Example 1 or coagulation inhibiting substance coated particle of Reference Example 3, 60 mg compound A; FIG. 12-13
Experimental: The water-insoluble polymer coated particle of Example 1 or the coagulation inhibiting substance coated particle of Reference Example 3, each of which contained 60 mg of compound A, was subjected to a dissolution test using Rotating Basket at 100 rpm and in the same manner as in Experimental Example 1. The dissolution amounts of fumaric acid or succinic acid as well as compound A were also measured. As for fumaric acid and succinic acid, the residual rate of each organic acid in the particles were inversely calculated from the dissolution rate, and the value of the maximum dissolution amount was normalized assuming 0% of the residual rate.

[4] = Dissolution amount of compound A in saturated organic acid; settings: room temperature, shaken 1 hr
Experimental: Citric acid, succinic acid, fumaric acid or malic acid was dissolved and saturated in the Japanese Pharmacopoeia dissolution test 2nd fluid (JP2), and filtered. Successively, compound A (0.4 g) was added to a filtrate (10 mL) saturated with an organic acid and the mixture was shaken at room temperature for 1 hr. The solution after shaking was filtered, diluted 50-fold with the Japanese Pharmacopoeia dissolution test 2nd fluid, and the diluted solution was diluted 20-fold with the Japanese Pharmacopoeia dissolution test 2nd fluid. The solution obtained by diluting twice was subjected to HPLC measurement and the dissolution amount of compound A was measured.

CNCc1cc(-c2ccccc2F)n(S(=O)(=O)c2cccnc2)c1.O=C(O)/C=C/C(=O)O [compound A, 1-[5-(2-Fluorophenyl)-1-(pyridin-3-ylsulfonyl)-1H-pyrrol-3-yl]-N-methylmethanamine monofumarate]
dissolution of compound A ([1]; JP2 added with 10% (W/W) sodium carbonate): suppressed dissolution | dissolution of compound A ([1]; JP2 added with 13% (W/W) succinic acid or 0.6% (W/W) fumaric acid): did not show a dissolution suppressive action | dissolution amount of compound A [2]: influenced by the concentration of fumaric acid or monosodium fumarate | start of dissolution of compound A relative to organic acid [3]: started after dissolution of fumaric acid or succinic acid | concentration (dissolution amount of compound A) ([4]; JP2, saturated organic acid: none): 5.22 µg·mL | concentration (dissolution amount of compound A) ([4]; JP2 saturated with citric acid): 26.30 µg·mL | concentration (dissolution amount of compound A) ([4]; JP2 saturated with fumaric acid, listed as Compound A, monofumarate): low concentration | concentration (dissolution amount of compound A) ([4]; JP2 saturated with fumaric acid, monofumarate): 0.67 µg·mL | concentration (dissolution amount of compound A) ([4]; JP2 saturated with malic acid): 26.64 µg·mL

From patent publication US11696893B2, “Preparation comprising vonoprazan” (Takeda Pharmaceutical Company Limited, priority 2017, dated 2023)
